Laboratory results from US10047081B2, “BACE1 inhibitors” (Hoffmann-La Roche Inc., priority 2015, dated 2018).
pIC50: −log10 of the molar value. Like-named read-outs stand apart in the source and are kept apart here.

How the values were obtained:
[1] = GSH human, in vitro adduct formation; type: in vitro ADME; design: key: NF = in vitro no significant adduct formation relative to control; details: in vitro adduct formation relative to control
BACE1 = target: T1, BACE1 (Homo sapiens, UniProt P56817); experiment: Cellular Aβ-lowering assay (Abeta 40 AlphaLISA, HEK293 APP cells); type: cell-based; details: 18-20 hrs incubation, Aβ 40 in culture supernatant, read-out: BACE1 cell act. Aβ40 IC50
T1 construct: endogenous in cells; host or cells: HEK293 APP cells
Procedure: Cellular Aβ-Lowering Assay:
The Abeta 40 AlphaLISA Assay can be used. The HEK293 APP cells were seeded in 96 well Microtiter plates in cell culture medium (Iscove's, plus 10% (v/v) fetal bovine serum, penicillin/streptomycin) to about 80% confluency and the compounds were added at a 3× concentration in ⅓ volume of culture medium (final DMSO concentration was kept at 1% v/v). After 18-20 hrs incubation at 37° C. and 5% CO2 in a humidified incubator, the culture supernatants were harvested for the determination of Aβ 40 concentrations using Perkin-Elmer Human Amyloid beta 1-40 (high specificity) Kit (Cat#AL275C).
In a Perkin-Elmer White Optiplate-384 (Cat#6007290), 2 ul culture supernatants were combined with 2 μl of a 10× AlphaLISA Anti-hAβAcceptor beads + Biotinylated Antibody Anti-Aβ 1-40 Mix (50 μg/mL/5 nM). After 1 hour room temperature incubation, 16 μl of a 1.25× preparation of Streptavidin (SA) Donor beads (25 μg/mL) were added and incubated for 30 minutes in the Dark. Light Emission at 615 nm was then recorded using EnVision-Alpha Reader. Levels of Aβ 40 in the culture supernatants were calculated as percentage of maximum signal (cells treated with 1% DMSO without inhibitor). The IC50 values were calculated using the Excel XLfit software.

CYP2C9 = target: T2, CYP2C9 (Homo sapiens, UniProt P11712); experiment: CYP inhibition assay, human liver microsomes; type: in vitro ADME
T2 construct: 0.2 mg/ml pooled human liver microsomes; from tissue; host or cells: pooled human liver microsomes
Procedure: (§1) Inhibition of cytochromes P450 (CYPs) 2C9, 2D6 and 3A4 was assessed using human liver microsomes and CYP-selective substrate metabolism reactions. 50 μl incubations were made up containing (finally) 0.2 mg/ml pooled human liver microsomes, 5 μM substrate (diclofenac for CYP2C9 [4′hydroxylase], dextromethorphan for CYP2D6 [O-demethylase] or midazolam for CYP3A4 [1′hydroxylase]), 0.25 μL DMSO containing test inhibitor and NADPH regenerating system. Test inhibitor concentrations of 50, 16.7, 5.6, 1.9, 0.6 and 0.2 μM were assessed in singlicate. Incubations were prewarmed to 37° C. for 10 minutes before initiation by addition of NADPH regenerating system. Incubations were quenched after 5 minutes (20 minutes for dextromethorphan) by addition of 50 μl cold acetonitrile containing 20 ng/ml 4-OH-diclofenac-13C6, 20 ng/mL dextrorphan-D3 and 20 ng/mL 1-OH-midazolam-D4. Quenched incubates were stored at −20° C. for at least 1 hour before centrifugation (20,000× g, 20 minutes). Supernatants were removed and diluted 1:1 with water prior to analysis using a RapidFire sample injector system and API4000 mass spectrometer. Peak areas for substrate, metabolite and stable-labelled metabolite standard were determined using MS/MS. The peak area ratios between the metabolite generated by the enzymatic reaction and the internal standard were used in subsequent calculations. The percentage of (DMSO) control activity was calculated for each incubate and IC50 values estimated by non-linear regression. Sulfaphenazole, quinidine or ketoconazole were tested in each CYP2C9, CYP2D6 or CYP3A4 inhibition experiment, respectively, to ensure assay sensitivity and reproducibility. (Validated assays for human cytochrome P450 activities, R. L. Walsky and R. S. Obach, Drug Metabolism and Disposition 32: 647-660, 2004. and S. Fowler and H. Zhang, The AAPS Journal, Vol. 10, No. 2, 410-424, 2008)

CYP2D6 = target: T3, CYP2D6 (Homo sapiens, UniProt P10635); experiment: CYP inhibition assay, human liver microsomes; type: in vitro ADME
T3 construct: 0.2 mg/ml pooled human liver microsomes; from tissue; host or cells: pooled human liver microsomes
Procedure: as §1

[2] = target: T4, recombinant human cathepsin E (Homo sapiens, UniProt P14091); experiment: Cathepsin E fluorescent substrate kinetic assay; type: biochemical; details: pH 4.5, substrate MR121-CKLVFFAEDW
T4 construct: purchased R&D Systems
T4 sequence (P14091 54-396): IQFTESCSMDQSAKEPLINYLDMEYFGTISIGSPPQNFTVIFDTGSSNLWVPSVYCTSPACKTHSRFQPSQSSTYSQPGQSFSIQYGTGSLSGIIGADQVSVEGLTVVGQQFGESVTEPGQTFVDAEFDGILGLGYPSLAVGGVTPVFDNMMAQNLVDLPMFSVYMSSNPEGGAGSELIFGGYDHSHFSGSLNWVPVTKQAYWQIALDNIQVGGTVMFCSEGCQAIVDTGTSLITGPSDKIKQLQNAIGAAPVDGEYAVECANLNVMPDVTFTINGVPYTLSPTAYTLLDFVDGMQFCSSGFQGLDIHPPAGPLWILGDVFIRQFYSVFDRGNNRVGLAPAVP
Description: (§2) Cathepsin D and Cathepsin E Fluorescent Substrate Kinetic Assays
(§3) The MR121 fluorescence assays described below are based on the fact that MR121 forms a non-fluorescent ground state complex with tryptophan. In solution this formation occurs at millimolar concentrations of tryptophan. The mechanism can be used to design a generic biochemical assay for proteases. A substrate peptide is labeled at the N-terminus with tryptophan and at the C-terminus with the fluorophore MR121 (for cathepsin D the 10 amino acid peptide WTSVLMAAPC-MR121 was used; for cathepsin E, MR121-CKLVFFAEDW was used). In absence of protease activity, the substrates remain intact and the MR121 fluorescence is reduced by the high local Trp-concentration. If the substrates are cleaved by the enzymes the MR121 fluorescence is recovered.
(§4) The fluorescent substrate cathepsin D and cathepsin E kinetic assays were performed at room temperature in 384-well microtiter plates (black with clear flat bottom, non-binding surface plates from Corning) in a final volume of 51 μl. The test compounds were serially diluted in DMSO (15 concentrations, ⅓ dilution steps) and 1 μl of diluted compounds were mixed for 10 min with 40 μl of cathepsin D (from human liver, Calbiochem) diluted in assay buffer (100 mM sodium acetate, 0.05% BSA, pH 5.5; final concentration:200 nM) or with 40 μl of recombinant human cathepsin E (R&D Systems) diluted in assay buffer (100 mM sodium acetate, 0.05% BSA, pH 4.5; final concentration:0.01 nM). After addition of 10 μl of the cathepsin D substrate WTSVLMAAPC-MR121 diluted in cathepsin D assay buffer (final concentration:300 nM) or 10 μl of the cathepsin E substrate MR121-CKLVFFAEDW diluted in cathepsin E assay buffer (final concentration:300 nM), the plates were strongly shaken for 2 minutes. The enzymatic reaction was followed in a plate: vision reader (Perkin Elmer) (excitation wavelength:630 nm; emission:695 nm) for at least 30 minutes in a kinetic measurement detecting an increase of MR121 fluorescence during the reaction time. The slope in the linear range of the kinetic was calculated and the IC50 of the test compounds were determined using a four parameter equation for curve fitting.

[3] = target: T5, cathepsin D (from human liver) (Homo sapiens, UniProt P07339); experiment: Cathepsin D fluorescent substrate kinetic assay; type: biochemical; details: pH 5.5, substrate WTSVLMAAPC-MR121
T5 construct: cathepsin D (from human liver, Calbiochem) diluted in assay buffer; purchased Calbiochem; host or cells: human liver
Description: as §2, §3, §4

CYP3A4 = target: T6, CYP3A4 (Homo sapiens, UniProt P08684); experiment: CYP inhibition assay, human liver microsomes; type: in vitro ADME
T6 construct: 0.2 mg/ml pooled human liver microsomes; from tissue; host or cells: pooled human liver microsomes
Procedure: as §1

[4] = human liver microsomes, substrate diclofenac, read-out: CYP IC50 2C9
[5] = human liver microsomes, substrate dextromethorphan, read-out: CYP IC50 2D6

T5 sequence (P07339 65-162 limits assumed): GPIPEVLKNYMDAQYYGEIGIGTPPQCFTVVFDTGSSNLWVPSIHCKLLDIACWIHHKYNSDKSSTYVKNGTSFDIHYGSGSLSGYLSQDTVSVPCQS
T5 sequence (P07339 169-412 limits assumed): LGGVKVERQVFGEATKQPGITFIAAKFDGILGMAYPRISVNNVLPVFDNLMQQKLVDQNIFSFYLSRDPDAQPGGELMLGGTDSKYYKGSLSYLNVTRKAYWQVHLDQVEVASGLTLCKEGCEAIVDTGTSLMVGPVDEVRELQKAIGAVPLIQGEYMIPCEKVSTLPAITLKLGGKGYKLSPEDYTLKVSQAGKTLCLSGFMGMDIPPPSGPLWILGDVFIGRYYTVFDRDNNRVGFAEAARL
T2 sequence (P11712 whole entry): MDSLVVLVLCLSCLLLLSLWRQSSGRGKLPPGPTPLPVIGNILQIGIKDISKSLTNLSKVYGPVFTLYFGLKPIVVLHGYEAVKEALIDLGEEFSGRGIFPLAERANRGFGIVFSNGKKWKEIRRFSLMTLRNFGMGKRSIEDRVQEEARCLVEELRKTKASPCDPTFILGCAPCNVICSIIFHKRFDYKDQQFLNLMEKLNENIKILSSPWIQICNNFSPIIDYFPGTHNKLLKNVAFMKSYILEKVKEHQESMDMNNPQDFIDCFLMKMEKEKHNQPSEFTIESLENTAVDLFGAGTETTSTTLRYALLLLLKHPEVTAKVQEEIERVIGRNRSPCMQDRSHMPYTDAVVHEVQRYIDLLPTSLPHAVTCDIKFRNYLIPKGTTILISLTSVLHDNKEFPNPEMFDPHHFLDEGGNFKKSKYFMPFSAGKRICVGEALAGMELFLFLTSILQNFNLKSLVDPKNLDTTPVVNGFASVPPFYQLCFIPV
T3 sequence (P10635 whole entry): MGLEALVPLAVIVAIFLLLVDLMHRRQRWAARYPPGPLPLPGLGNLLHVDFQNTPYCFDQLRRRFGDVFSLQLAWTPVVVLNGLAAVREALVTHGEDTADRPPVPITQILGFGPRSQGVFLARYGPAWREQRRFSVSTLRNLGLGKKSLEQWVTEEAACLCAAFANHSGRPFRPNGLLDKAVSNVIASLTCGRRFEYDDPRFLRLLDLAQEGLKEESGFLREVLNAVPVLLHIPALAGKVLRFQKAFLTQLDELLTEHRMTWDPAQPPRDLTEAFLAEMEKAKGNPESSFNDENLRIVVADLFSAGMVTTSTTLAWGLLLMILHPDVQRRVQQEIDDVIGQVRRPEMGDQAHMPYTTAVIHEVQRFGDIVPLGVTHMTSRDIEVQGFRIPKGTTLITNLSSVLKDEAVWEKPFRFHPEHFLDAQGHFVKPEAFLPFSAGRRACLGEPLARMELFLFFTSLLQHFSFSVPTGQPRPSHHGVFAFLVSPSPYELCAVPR
T1 sequence (P56817 46-501): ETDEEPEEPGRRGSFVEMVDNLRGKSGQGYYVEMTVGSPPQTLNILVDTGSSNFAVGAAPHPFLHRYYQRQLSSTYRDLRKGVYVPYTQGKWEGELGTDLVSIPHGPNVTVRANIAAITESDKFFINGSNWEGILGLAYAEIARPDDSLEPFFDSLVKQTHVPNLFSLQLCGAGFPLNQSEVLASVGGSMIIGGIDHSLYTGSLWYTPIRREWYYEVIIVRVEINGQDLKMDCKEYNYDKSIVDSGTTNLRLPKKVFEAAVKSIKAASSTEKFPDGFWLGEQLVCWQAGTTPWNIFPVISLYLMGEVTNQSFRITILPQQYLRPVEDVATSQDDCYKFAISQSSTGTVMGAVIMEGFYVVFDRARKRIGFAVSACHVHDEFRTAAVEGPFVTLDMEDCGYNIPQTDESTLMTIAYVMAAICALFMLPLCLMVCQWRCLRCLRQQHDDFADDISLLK
T6 sequence (P08684 whole entry): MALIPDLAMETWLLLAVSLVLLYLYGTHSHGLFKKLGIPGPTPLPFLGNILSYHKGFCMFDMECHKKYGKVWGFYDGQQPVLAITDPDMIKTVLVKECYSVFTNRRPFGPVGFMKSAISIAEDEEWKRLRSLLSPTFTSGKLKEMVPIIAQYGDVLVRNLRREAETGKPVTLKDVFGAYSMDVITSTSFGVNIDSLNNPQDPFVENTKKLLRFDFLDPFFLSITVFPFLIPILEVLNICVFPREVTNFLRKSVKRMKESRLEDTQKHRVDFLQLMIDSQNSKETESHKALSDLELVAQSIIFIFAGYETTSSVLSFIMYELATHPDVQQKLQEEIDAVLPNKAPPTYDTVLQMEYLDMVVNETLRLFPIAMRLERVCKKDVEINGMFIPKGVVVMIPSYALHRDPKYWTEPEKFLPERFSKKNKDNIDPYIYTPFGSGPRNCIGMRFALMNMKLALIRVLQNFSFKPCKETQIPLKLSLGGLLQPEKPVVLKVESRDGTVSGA

| SMILES | pIC50 (BACE1) | pIC50 [2] | pIC50 [3] | further results |
| --- | --- | --- | --- | --- |
| CN=[S@]1(=O)C[C@@](CF)(c2cc(-c3cc(-c4ncc(Cl)cn4)no3)ccc2F)N=C(N)C1(C)C [Example 1, (1S,3S)-5-amino-3-(5-(3-(5-chloropyrimidin-2-yl)isoxazol-5-yl)-2-fluorophenyl)-3-(fluoromethyl)-6,6-dimethyl-1-(methylimino)-3,6-dihydro-2H-1,4-thiazine 1-oxide 2,2,2-trifluoroacetate] | 7.02 | 3.86 | 4.12 | GSH human [1]: NF; pIC50 (CYP2C9; [4]): < 5.00; pIC50 (CYP2D6; [5]): < 5.00 |
| CN=[S@@]1(=O)C[C@@](C)(c2cc(-c3cc(-c4ncc(Cl)cn4)no3)ccc2F)N=C(N)C12CCCC2 [Example 28, (6R,8R)-10-amino-8-(5-(3-(5-chloropyrimidin-2-yl)isoxazol-5-yl)-2-fluorophenyl)-8-methyl-6-(methylimino)-6-thia-9-azaspiro[4.5]dec-9-ene 6-oxide 2,2,2-trifluoroacetate] | 8.15 | 5.15 | 4.80 | pIC50 (CYP3A4): < 5.00; pIC50 (CYP2C9): < 5.00; pIC50 (CYP2D6): < 5.00 |
| COc1cnc(-c2cc(-c3ccc(F)c([C@]4(C)C[S@@](=N)(=O)C(C)(C)C(N)=N4)c3)on2)cn1 [Example 41, (1R,3R)-5-amino-3-(2-fluoro-5-(3-(5-methoxypyrazin-2-yl)isoxazol-5-yl)phenyl)-1-imino-3,6,6-trimethyl-3,6-dihydro-2H-1,4-thiazine 1-oxide] | 8.10 | 4.25 | 4.35 | pIC50 (CYP3A4; human liver microsomes, substrate midazolam, read-out: CYP IC50 3A4): < 5.00; pIC50 (CYP2C9; [4]): < 5.00; pIC50 (CYP2D6; [5]): < 5.00 |
| CN=[S@@]1(=O)C[C@@](C)(c2cc(-c3cc(-c4ncc(C#N)cn4)no3)ccc2F)N=C(N)C1(C)C [Example 8, 2-(5-(3-((1R,3R)-5-amino-3,6,6-trimethyl-1-(methylimino)-1-oxido-3,6-dihydro-2H-1,4-thiazin-3-yl)-4-fluorophenyl)isoxazol-3-yl)pyrimidine-5-carbonitrile 2,2,2-trifluoroacetate] | 7.66 | – | – | – |
| [2H]C([2H])([2H])N=[S@@]1(=O)C[C@@](C)(c2cc(-c3cc(-c4ncc(OCC(F)(F)C(F)F)cn4)no3)ccc2F)N=C(N)C1(C)C [Example 25, (1R,3R)-3-[2-fluoro-5-[3-[5-(2,2,3,3-tetrafluoropropoxy)pyrimidin-2-yl]isoxazol-5-yl]phenyl]-3,6,6-trimethyl-1-oxo-1-(trideuteriomethylimino)-2H-1,4-thiazin-5-amine 2,2,2-trifluoroacetate] | 7.89 | – | – | – |
| CN=[S@@]1(=O)C[C@@](C)(c2cc(-c3cc(-c4cnc(O)cn4)no3)ccc2F)N=C(N)C1(C)C [Example 23, (1R,3R)-5-amino-3-(2-fluoro-5-(3-(5-hydroxypyrazin-2-yl)isoxazol-5-yl)phenyl)-3,6,6-trimethyl-1-(methylimino)-3,6-dihydro-2H-1,4-thiazine 1-oxide] | < 6.00 | – | – | – |
| CN=[S@]1(=O)C[C@@](C)(c2cc(-c3cc(-c4cnc(OCC(F)F)cn4)no3)ccc2F)N=C(N)C1(C)C [Example 11, (1S,3R)-5-amino-3-(5-(3-(5-(2,2-difluoroethoxy)pyrazin-2-yl)isoxazol-5-yl)-2-fluorophenyl)-3,6,6-trimethyl-1-(methylimino)-3,6-dihydro-2H-1,4-thiazine 1-oxide 2,2,2-trifluoroacetate] | 7.29 | – | – | – |
| CN=[S@]1(=O)C[C@@](C)(c2cc(-c3cc(-c4ncc(OCC(F)F)cn4)no3)ccc2F)N=C(N)C1(C)C [Example 19, (1S,3R)-3-[5-[3-[5-(2,2-difluoroethoxy)pyrimidin-2-yl]isoxazol-5-yl]-2-fluoro-phenyl]-3,6,6-trimethyl-1-methylimino-1-oxo-2H-1,4-thiazin-5-amine] | 7.57 | – | – | – |
